From patent publication US20090324489A1 (priority 2005, published 2009)
Read-outs that look alike come from different tables or passages of the source.

What was measured:
PI3K = assay: Inhibition of PI3K enzyme activity (32P ATP lipid phosphorylation, TLC); format: biochemical; details: compounds incubated 3 hours at 37° C. in PBS pH 6.8, then 30 minute PI3K incubation; read-out: Bioassay: PI3K IC50
Description: We incubated compounds for three hours at 37° C. in PBS, pH 6.8, followed a 30 minute incubation for PI3K activity using the assay system previously described which involves lipid phosphorylation by ^32P labeled ATP and thin layer chromatography, (see Yuan et al., Bioconjug. Chem. 16:669 (2005)).

[1] = Formation of wortmannin from WmC20 conjugates monitored by HPLC; details: PBS pH 6.8, 37° C.
Description: The solutions were incubated in water bath at 37° C. and were analyzed at different time points with HPLC by injecting the solution (10 μL) together with 1 μL internal standard solution (containing 1 μg methyl 4-hydroxybezoate). The initial time point (0 hr) was taken before putting the tube in the water bath. HPLC gradients were adjusted to produce baseline separations. Before the injection, the samples were vortexed briefly and then spun down. Data using this method appear in FIG. 6.
Compounds (1.8 mg) and 4b (1.3 mg) (examples were weighted into the 1.5 mL tubes and dissolved in PBS buffer (pH 6.8, 400 μL). The solutions were incubated at 37° C. At different time point 20 μL solution was mixed with 1 μL internal standard solution in DMSO (containing 1 μg methyl 4-hydroxybenzoate) and analyzed by HPLC. The initial time point (0 hr) was taken before putting the tube in the water bath. Before the injection, the samples were vortexed briefly and then spun down.
The following HPLC methods were employed. HPLC (Varian Prostar 210 with a variable wavelength PDA 330 detector) employed reverse phase C18 columns (VYDAC, Cat.#: 218TP 1022 for synthesis; Varian, Cat. #: R0086200C5 for analysis) with water (Millipore, containing 0.1% trifloroacetic acid,) (buffer A) and acetonitrile (containing 20% buffer A) (buffer B) as elution buffer. System 1: buffer A/buffer B (80:20) isocratic for 5 minutes, linear gradient to buffer A/buffer B (20:80) over 40 minutes, then the gradient back to 80:20 in 5 minutes and isocratic for 5 minutes, flow: 4.9 ml/min, λmax: 418 nm (used for purification of 2a); System 2: buffer A/buffer B (80:20) isocratic for 5 minutes, linear gradient to buffer A (buffer B (20:80) over 25 minutes and then isocratic for 5 minutes, then the gradient back to 80:20 in 5 minutes and isocratic for 5 minutes, flow: 6.0 mi/min, λmax: 408 nm (used for purification of 2b); System 3: buffer A/buffer B (70:30) linear gradient to buffer A/buffer B (20:80) over 15 minutes, then gradient back to 70:30 in 3 minutes and isocratic for another 5 minutes, flow: 1.0 ml/min, λmax: 258 nm (System 4: buffer A/buffer B (99:1) linear gradient to buffer A/buffer B (40:60) over 46 minutes, then gradient back to […] in 5 minutes and isocratic for another 5 minutes, flow: 1.0 ml/min, λmax: 250 nm).

HeLa cells = assay: Anti-proliferative assay, HeLa cells; format: cell-based
physchem = format: physicochemical; details: for half-life / half-life at 1.5 μM: buffer
Description: The stability of compounds of the invention was obtained by the following method. […] The solutions were incubated at 37° C.
Stability data was fit to equation 1, which illustrates our treatment of the data for 2a ([…]) as shown in FIG. 2 with first order decay constants (kFOD) given in Table 1.

A549 cells = assay: Anti-proliferative SRB assay, A549 cells; format: cell-based
Description: A549 cells were grown in RPMI-1640 supplemented with 10% FBS, 100 units/mL of penicillin, 100 μg/mL of streptomycin, and 2 mM L-glutamine. All cells were grown in a humidified atmosphere at 37° C. and 5% CO2. Growth inhibition was evaluated by the SRB assay^22. Cells were seeded in 96-well plates at 5000 cells per well in 100 μL of media and incubated at 37° C. for 24 hours. Cells were then treated with 0-100 μM of compounds at 37° C. for 48 hours. Cells were fixed with 50 μL cold 50% TCA, incubated at 4° C. for 1 hour, and washed 5 times with tap water. The 96-well plates were allowed to air dry and 100 μL 0.4% sulforhodamine B (SRB) in 1% acetic acid was added to each well. After 10 minutes, the unbound SRB was washed away with 1% acetic acid and the plates were dried. Protein-bound dye was solubilized by addition of 200 μL 10 mM Tris buffer and subsequent shaking at RT for 10 minutes. The absorbance of each well was measured at 490 nm by a plate reader. Percent cell survival was calculated for each concentration by the ratio of the measured absorbance to the absorbance of the untreated cells. Curve fitting was performed using Prism 4.0a software. IC50 is the 50% inhibition of cell mass without subtraction of the resistant cell population.

[2] = cited from earlier work
[3] = Homo sapiens, A549, 48 hours treatment
[4] = RPM tissue culture medium, data from Holleran et al.

| Compound | IC50 (PI3K) [µM] | K1 (wortmannin generation, fit to Equation 2) [1] | K2 (wortmannin degradation, fit to Equation 2) [1] | IC50 (HeLa cells; Homo sapiens, HeLa) [µM] | half-life (physchem; pH 6.8, Half Life) [h] | IC50 (A549 cells; [3]) [µM] | other results |
| --- | --- | --- | --- | --- | --- | --- | --- |
| WmC20-N(Me)-hexanoate-IgG [Example 14] | 0.13 | 0.024 (0.013-0.034) hr^−1 | 0.282 (0.166-0.398) hr^−1 |  |  |  |  |
| COCC1OC(=O)C(=CNCCCCCC(=O)O)C2=C(O)C(=O)C3=C(C(OC(C)=O)CC4(C)C(=O)CCC34)C21C (centres unmarked) [Example 2, wortmannin C20-NH-hexanoic acid] |  |  |  | 63.8 ± 0.6 | 131 | 45.8 ± 0.3 | half-life at 1.5 μM (physchem; pH 6.8, Half Life): 223 h |
| COC[C@H]1OC(=O)c2coc3c2[C@@]1(C)C1=C(C3=O)[C@@H]2CCC(=O)[C@@]2(C)C[C@H]1OC(C)=O [wortmannin] |  |  |  | 41 ± 0.9 | 57.8 | 21.1 ± 0.5 | KFOD ([2]; MEM tissue culture medium, data from Holleran et al.): 5.04 h⁻¹; half-lives in RPM and MEM tissue culture media ([2]; RPM and MEM, Holleran et al.): about 10 minutes; Half Life [2, 4]: 0.172 h; KFOD [2, 4]: 4.02 h⁻¹; half-life in tissue culture media ([2]; tissue culture media, Holleran et al.): 8 to 13 min; KFOD (95% confidence intervals) (physchem; PBS pH 6.8, 37° C.): 0.012 (0.0080-0.016) hr^−1; KFOD (95% confidence intervals) (physchem; PBS, 0.065 mM BSA, 37° C.): 0.18 (0.16-0.20) hr^−1; KFOD (95% confidence intervals) (physchem; PBS, 10 mM NAcLys, 37° C.): 0.30 (0.23-0.38) hr^−1; KFOD (95% confidence intervals) (physchem; PBS, 10 mM Proline, 37° C.): 1.87 (0.62-3.13) hr^−1; half-life at 2.26 mM (physchem; pH 6.8, Half Life): 3.85 h |
| WmC20-NH-hexanoate-IgG [Example 15] | > 1 |  |  |  |  |  |  |
| WmC20-N(Me)-hexanoate-dextran [Example 17] |  |  |  |  |  |  | IC50 (HeLa cells): 13.3 ± 0.4 µM; IC50 (A549 cells; 48 hours treatment): 3.96 ± 0.23 µM |
| Wm-N(Me)Hexanoate-BSA conjugate [Example 12] | 0.0148 ± 0.0011 | 0.190 (0.128-0.253) hr^−1 | 0.905 (0.707-1.103) hr^−1 |  |  |  |  |
| WmC2O-N(Me)-hexanoate-Bead [Example 16] |  | 0.308 (0.124-0.492) hr^−1 | 0.148 (0.076-0.220) hr^−1 |  |  |  |  |
| WmC20-NH-hexanoate-BSA conjugate [Example 13] | > 1 |  |  |  |  |  |  |
| WmC20-N(H)-hexanoate-dextran [Example 18] |  |  |  |  |  |  | IC50 (HeLa cells): 58 ± 0.6 µM; IC50 (A549 cells; 48 hours treatment): 64.7 ± 1.2 µM |
| COCC1OC(=O)C(=CN(C)CCCCCC(=O)O)C2=C(O)C(=O)C3=C(C(OC(C)=O)CC4(C)C(=O)CCC34)C21C (centres unmarked) [Example 1, wortmannin C20-N(Me)-hexanoic acid] |  |  |  | 10.9 ± 0.2 | 8.7 | 3.11 ± 0.17 | half-life at 1.5 μM (physchem; pH 6.8, Half Life): 10.7 h |
